pEC50: −log10 of the molar value.
Columns and labels:
SARS-CoV-2 [1] = experiment: Antiviral activity against nirmatrelvir-resistant SARS-CoV-2 harboring rL50F/E166A/L167F mutant infected in human Caco-2 cells expressing hTMPRSS/hACE2 incubated for 48 hrs in presence of CP-100356 by crystal violet staining based analysis; type: functional, organism-based, Severe acute respiratory syndrome coronavirus 2
SARS-CoV-2 [2] = experiment: Selectivity ratio of EC50 for nirmatrelvir-resistant SARS-CoV-2 harboring rL50F/E166A/L167F mutant infected in human Caco-2 cells expressing hTMPRSS/hACE2 to EC50 for wild-type SARS-CoV-2 WA1 infected in human Caco-2 cells expressing hTMPRSS/hACE2; type: functional

With `CC(C)(C)[C@H](NC(=O)C(F)(F)F)C(=O)N1C[C@H]2[C@@H]([C@H]1C(=O)N[C@H](C#N)C[C@@H]1CCNC1=O)C2(C)C` the pEC50 (SARS-CoV-2 [1]) was 6.30 and the “Ratio EC50” value (SARS-CoV-2 [2]) was 14.8.

Reference: ChEMBL document CHEMBL6092219, “Structure-Based Design of Covalent SARS-CoV-2 Papain-like Protease Inhibitors” (J Med Chem, 2024)
